Data on 1 molecule can be found in the NIST ThermoML archive (doi:10.1016/j.tca.2017.02.001).

Numbers after ± are expanded uncertainties.

For this series the following is noted: 298.15 K, 101.33 kPa, Liquid.

On to `OCCO` [1,2-ethanediol], for which the viscosity (Cone and plate viscometry) is given as 16.9 ± 1.7 mPa·s. In addition, the electrical conductivity (Direct current cell with electrodes) turned out to be 8.5e-05 ± 2e-06 S/m. For the same molecule, the thermal conductivity (transient hot wire) was determined as 0.2445 ± 0.0098 W/m/K.
